{"source": "patent US20210346357A1", "about": "(priority 2020, published 2021)", "key": {"[1]": {"system": "IL-13 induced pSTAT6 in lung tissue", "test": "Murine model of IL-13 induced pSTAT6 induction in lung tissue", "assay_type": "in vivo", "conditions": "mouse lung, oral aspiration 1 mg/mL 50 μL, IL-13 challenge at 4 h; scale 0% to 100% inhibitory effect", "excerpt": "Assay 3: Murine (Mouse) Model of IL-13 induced pSTAT6 Induction in Lung Tissue\nIL-13 is an important cytokine underlying the pathophysiology of asthma (Kudlacz et al. Eur. J. Pharmacol, 2008, 582,154-161). IL-13 binds to cell surface receptors activating members of the Janus family of kinases (JAK) which then phosphorylate STAT6 and subsequently activates further transcription pathways. In the described model, a dose of IL-13 was delivered locally into the lungs of mice to induce the phosphorylation of STAT6 (pSTAT6) which is then measured as the endpoint.\nAdult Balb/c mice from Harlan were used in the assay. […] Animals were placed in lateral recumbency post dose and monitored for full recovery from anesthesia before being returned to their home cage. Four hours later, animals were once again briefly anesthetized and challenged with either vehicle or IL-13 (0.03 μg total dose delivered, 50 μL total volume) via oral aspiration before being monitored for recovery from anesthesia and returned to their home cage. […] Plasma and lung levels of test compound were determined by LC-MS analysis against analytical standards constructed into a standard curve in the test matrix. A lung to plasma ratio was determined as the ratio of the lung concentration in ng/g to the plasma concentration in ng/mL at 5 hours. […]"}, "[2]": {"test": "Phase 1 SAD/MAD study of inhaled compound 1 in healthy subjects", "assay_type": "in vivo, human", "conditions": "for AUC(0-t): read-out: AUC0-24", "experimental": "This is a phase 1, 2-part, double-blind, randomized, placebo controlled, sponsor-open, SAD (Part A) and MAD (Part B). Subjects will participate in only 1 cohort in only 1 study part.\nPart A (SAD): three (3) cohorts of 8 healthy subjects (6 active and 2 placebo). In each cohort, subjects received a single inhaled dose of compound 1 or placebo. […] Cardiodynamic monitoring via Holter monitors was conducted pre-dose and for at least 24 hours following dosing on Day 1 in each cohort, with rest periods for cardiodynamic electrocardiogram (ECG) extractions time matched to the PK sampling time points.\nPart B (MAD): three (3) cohorts of 10 healthy subjects (8 active and 2 placebo). In each cohort, subjects received inhaled doses once daily (QD) for 7 days. […] Blood samples for PK assessment were also collected pre-dose on the morning of Days 3 through 6. Cardiodynamic monitoring via Holter monitors may be conducted pre-dose on Day 1 and pre-dose and for at least 24 hours following dosing on the morning of Day 7 in each cohort with rest periods for cardiodynamic ECG extractions time matched to the PK sampling time points.\nParts A and B: safety (i.e., physical examinations, vital signs, 12-lead safety ECGs, spirometry, clinical laboratory tests, and adverse events [AEs]) were assessed throughout the study; blood and urine samples were collected for safety assessments. All subjects who received at least one dose of study drug (including subjects who terminated the study early) returned to the CRU 7 (±2) days after the last study drug administration for follow-up procedures, and to determine if any AEs have occurred since the last study visit.\nPart B: subjects received inhaled doses QD for 7 days using a nebulizer device.\nMorning doses on Days 1 and 7 were administered under fasting conditions due to cardiodynamic monitoring. On all other times, doses were administered at least 30 minutes after completion of a meal or snack. Hour 0 was defined as the beginning of inhalation in each morning dose administration.\nAUC0-24, AUC0-∞, Cmax and t1/2 are presented as arithmetic mean (standard deviation). Tmax is presented as median (minimum, maximum)."}, "[3]": {"conditions": "healthy subjects, 1 mg to 10 mg"}, "[4]": {"conditions": "human, plasma, inhaled or intranasal, 1 mg, healthy subjects, inhaled 1 mg QD, Day 1, mean"}, "[5]": {"conditions": "human, plasma, inhaled or intranasal, 1 mg, healthy subjects, inhaled 1 mg QD, Day 7, mean"}, "[6]": {"conditions": "human, plasma, inhaled or intranasal, 1 mg, healthy subjects, single inhaled dose 1 mg, mean"}, "[7]": {"conditions": "human, plasma, inhaled or intranasal, 3 mg, healthy subjects, inhaled 3 mg QD, Day 1, mean"}, "[8]": {"conditions": "human, plasma, inhaled or intranasal, 3 mg, healthy subjects, inhaled 3 mg QD, Day 7, mean"}, "[9]": {"conditions": "human, plasma, inhaled or intranasal, 3 mg, healthy subjects, single inhaled dose 3 mg, mean"}, "[10]": {"conditions": "human, plasma, inhaled or intranasal, 10 mg, healthy subjects, inhaled 10 mg QD, Day 1, mean"}, "[11]": {"conditions": "human, plasma, inhaled or intranasal, 10 mg, healthy subjects, inhaled 10 mg QD, Day 7, mean"}, "[12]": {"conditions": "human, plasma, inhaled or intranasal, 10 mg, healthy subjects, single inhaled dose 10 mg, mean"}}, "note": "Read-outs that look alike come from different tables or passages of the source.", "data": [{"smiles": "CCc1cc(O)ccc1-c1ccc2c(-c3nc4c([nH]3)CN(C(C)C)[C@H](C(=O)N3CC(N(C)C)C3)C4)n[nH]c2c1", "note": "[Compound 1, (S)-(3-(dimethylamino)azetidin-1-yl)(2-(6-(2-ethyl-4-hydroxyphenyl)-1H-indazol-3-yl)-5-isopropyl-4,5,6,7-tetrahydro-3H-imidazo[4,5-c]pyridin-6-yl)methanone]", "values": [{"measurement": "pSTAT6 inhibition at 5 hours", "setting": "[1]", "value": 75}, {"measurement": "changes in laboratory parameters, vital signs, or ECGs", "setting": "[2]; [3]", "value": "no clinically relevant changes"}, {"measurement": "severity of adverse events", "setting": "[2]; [3]", "value": "mild or moderate"}, {"measurement": "Tmax", "setting": "[2]; healthy subjects, inhaled 1 mg QD, Day 1, median", "value": 1.0, "unit": "h"}, {"measurement": "Tmax", "setting": "[2]; healthy subjects, inhaled 1 mg QD, Day 7, median", "value": 1.0, "unit": "h"}, {"measurement": "Tmax", "setting": "[2]; healthy subjects, inhaled 3 mg QD, Day 1, median", "value": 1.0, "unit": "h"}, {"measurement": "Tmax", "setting": "[2]; healthy subjects, inhaled 3 mg QD, Day 7, median", "value": 1.0, "unit": "h"}, {"measurement": "Tmax", "setting": "[2]; healthy subjects, inhaled 10 mg QD, Day 1, median", "value": 1.0, "unit": "h"}, {"measurement": "Tmax", "setting": "[2]; healthy subjects, inhaled 10 mg QD, Day 7, median", "value": 1.0, "unit": "h"}, {"measurement": "tolerability", "setting": "[2]; healthy subjects, single daily doses 1 mg to 10 mg for 7 days", "value": "well tolerated"}, {"measurement": "t1/2", "setting": "[2]; healthy subjects, single inhaled dose 3 mg, mean", "value": 24.73, "unit": "h"}, {"measurement": "Cmax", "setting": "[2]; [4]", "value": 5.33, "unit": "ng/mL"}, {"measurement": "AUC(0-t)", "setting": "[2]; [4]", "value": 18.4, "unit": "ng·h/mL"}, {"measurement": "Cmax", "setting": "[2]; [5]", "value": 5.7, "unit": "ng/mL"}, {"measurement": "AUC(0-t)", "setting": "[2]; [5]", "value": 21.6, "unit": "ng·h/mL"}, {"measurement": "Cmax", "setting": "[2]; [6]", "value": 5.72, "unit": "ng/mL"}, {"measurement": "AUC(0-t)", "setting": "[2]; [6]", "value": 18.5, "unit": "ng·h/mL"}, {"measurement": "half-life", "setting": "[2]; human, plasma, inhaled or intranasal, 1 mg, healthy subjects, single inhaled dose 1 mg, mean, read-out: t1/2 (converted)", "value": 19.3, "unit": "h"}, {"measurement": "Cmax", "setting": "[2]; [7]", "value": 17.8, "unit": "ng/mL"}, {"measurement": "AUC(0-t)", "setting": "[2]; [7]", "value": 48.1, "unit": "ng·h/mL"}, {"measurement": "Cmax", "setting": "[2]; [8]", "value": 18.2, "unit": "ng/mL"}, {"measurement": "AUC(0-t)", "setting": "[2]; [8]", "value": 52.3, "unit": "ng·h/mL"}, {"measurement": "Cmax", "setting": "[2]; [9]", "value": 14.1, "unit": "ng/mL"}, {"measurement": "AUC(0-t)", "setting": "[2]; [9]", "value": 43.3, "unit": "ng·h/mL"}, {"measurement": "half-life", "setting": "[2]; human, plasma, inhaled or intranasal, 3 mg, healthy subjects, single inhaled dose 3 mg, mean, read-out: t1/2 (converted)", "value": 24.7, "unit": "h"}, {"measurement": "Cmax", "setting": "[2]; [10]", "value": 54.6, "unit": "ng/mL"}, {"measurement": "AUC(0-t)", "setting": "[2]; [10]", "value": 191, "unit": "ng·h/mL"}, {"measurement": "Cmax", "setting": "[2]; [11]", "value": 53.6, "unit": "ng/mL"}, {"measurement": "AUC(0-t)", "setting": "[2]; [11]", "value": 204, "unit": "ng·h/mL"}, {"measurement": "Cmax", "setting": "[2]; [12]", "value": 50.9, "unit": "ng/mL"}, {"measurement": "AUC(0-t)", "setting": "[2]; [12]", "value": 153, "unit": "ng·h/mL"}, {"measurement": "half-life", "setting": "[2]; human, plasma, inhaled or intranasal, 10 mg, healthy subjects, single inhaled dose 10 mg, mean, read-out: t1/2 (converted)", "value": 23.1, "unit": "h"}, {"measurement": "Tmax", "setting": "[2]; human, plasma, inhaled or intranasal, healthy subjects, following single and multiple inhaled doses, read-out: Tmax", "value": "~1", "unit": "h"}, {"measurement": "half-life", "setting": "[2]; human, plasma, inhaled or intranasal, healthy subjects, following single and multiple inhaled doses, read-out: terminal elimination half-life (converted)", "value": "~24", "unit": "h"}, {"measurement": "AUC(0-inf)", "setting": "[2]; human, plasma, inhaled or intranasal, healthy subjects, single inhaled dose 1 mg, mean", "value": 20.7, "unit": "ng·h/mL"}, {"measurement": "Tmax", "setting": "[2]; human, plasma, inhaled or intranasal, healthy subjects, single inhaled dose 1 mg, median, read-out: Tmax", "value": 1, "unit": "h"}, {"measurement": "AUC(0-inf)", "setting": "[2]; human, plasma, inhaled or intranasal, healthy subjects, single inhaled dose 3 mg, mean", "value": 48.6, "unit": "ng·h/mL"}, {"measurement": "Tmax", "setting": "[2]; human, plasma, inhaled or intranasal, healthy subjects, single inhaled dose 3 mg, median, read-out: Tmax", "value": 1, "unit": "h"}, {"measurement": "AUC(0-inf)", "setting": "[2]; human, plasma, inhaled or intranasal, healthy subjects, single inhaled dose 10 mg, mean", "value": 169, "unit": "ng·h/mL"}, {"measurement": "Tmax", "setting": "[2]; human, plasma, inhaled or intranasal, healthy subjects, single inhaled dose 10 mg, median, read-out: Tmax", "value": 1, "unit": "h"}, {"measurement": "neutrophil and hemoglobin reductions, lipid changes", "setting": "[2]; inhaled administration", "value": "not observed"}]}]}
